Laboratory results from ChEMBL document CHEMBL4680301, “Development of a novel acetyl glucose-modified gefitinib derivative to enhance the radiosensitizing effect” (Bioorg Med Chem, 2021).
Active and inactive are the calls of the source. No cut-off for these calls is given here.

Key:
[1] = Drug metabolism in human A431 cells assessed as 4-((4-((3-Chloro-4-fluorophenyl)amino)-6-(3-morpholinopropoxy)quinazolin-7-yl)oxy)butan-1-ol metabolite formation at 3 uM measured after 24 hrs by HPLC analysis; type: ADME, cell-based; conditions: a-431, 24 h
A-431 [2] = experiment: Cytotoxicity against human A431 cells measured after 24 hrs by WST-1 assay; type: functional, cell-based; conditions: A-431, 24 h
A-431 [3] = experiment: Radio-sensitinzing effect in human A431 cells assessed as reduction in surviving fraction incubated at 1 uM for 24 hrs with X-ray followed by measured after 7 days by Giemsa staining relative to control; type: functional; conditions: time 8 day
HepG2 [4] = experiment: Inhibition of GLUT in human HepG2 cells assessed as inhibition of 2-NBDG uptake at 10 uM incubated for 20 mins by fluorescence microplate reader; type: cell-based
[5] = Drug metabolism in human A431 cells assessed as 3-((4-((3-Chloro-4-fluorophenyl)amino)-6-(3-morpholinopropoxy)quinazolin-7-yl)oxy)propan-1-ol metabolite formation at 3 uM measured after 24 hrs by HPLC analysis; type: ADME, cell-based; conditions: a-431, 24 h
[6] = Drug metabolism in human A431 cells assessed as 2-((4-((3-Chloro-4-fluorophenyl)amino)-6-(3-morpholinopropoxy)quinazolin-7-yl)oxy)ethan-1-ol metabolite formation at 3 uM measured after 24 hrs by HPLC analysis; type: ADME, cell-based; conditions: a-431, 24 h
HepG2 [7] = experiment: Inhibition of GLUT in human HepG2 cells assessed as inhibition of 2-NBDG uptake incubated for 20 mins by fluorescence microplate reader; type: cell-based; conditions: dose 10-30 µM

Compound | Drug metabolism [1] | IC50 (A-431 [2]) [µM] | fold change (FC) (A-431 [3]) | inhibition (HepG2 [4]) | Drug metabolism [5] | Drug metabolism [6] | inhibition (HepG2 [7])
CC(=O)OC[C@H]1OC(OCCCCOc2cc3ncnc(Nc4ccc(F)c(Cl)c4)c3cc2OCCCN2CCOCC2)[C@H](OC(C)=O)[C@@H](OC(C)=O)[C@@H]1OC(C)=O (stereo partly specified) | Metabolite_Detected | 39.4 | 0.202 | – | – | – | –
C=C1[C@@H](C)[C@H]2[C@H](Cc3ccccc3)NC(=O)[C@]23OC(=O)/C=C/[C@H](O)CCC[C@@H](C)C/C=C/[C@H]3[C@@H]1O | – | – | – | Active | – | – | –
CC(=O)OC[C@H]1OC(OCCCOc2cc3ncnc(Nc4ccc(F)c(Cl)c4)c3cc2OCCCN2CCOCC2)[C@H](OC(C)=O)[C@@H](OC(C)=O)[C@@H]1OC(C)=O (stereo partly specified) | – | 36.8 | 0.216 | – | Metabolite_Detected | – | –
CC(=O)OC[C@H]1OC(OCCOc2cc3ncnc(Nc4ccc(F)c(Cl)c4)c3cc2OCCCN2CCOCC2)[C@H](OC(C)=O)[C@@H](OC(C)=O)[C@@H]1OC(C)=O (stereo partly specified) | – | 34.3 | 0.175 | – | – | Metabolite_Detected | Dose-dependent effect
